From PubChem BioAssay AID977628 (Broad Institute, 2014) come the findings set out here.

For assay [1], the system named is E. coli WT GFP strain growth, fluorescence, 24 h. Kind of assay: growth of wild-type and h24-humanized E. coli strains – h24 mutant RFP vs wild-type GFP, cherry-pick, dose response (AID 977628).
Assay [2] concerns E. coli mixed WT/h24 culture total growth, OD600, 24 h. The description is as above.

Records with an inconclusive call do not appear. The source made the active and inactive calls.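 The calls were made as follows: active = compound lowering the normal-ribosome reporter at least twice as much as the humanized-ribosome reporter, growth loss under a set limit; inconclusive = no clear call, values can overlap the other calls; inactive = the rest.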

A word on the AC50: it is the midpoint of the concentration-response curve, whichever way the signal moves. Turning to `CCOc1ccc(NC(=O)CCc2nnc3ccc(N4CCC(C)CC4)nn23)cc1`, the AC50 in assay [1] was > 100 µM (inactive); in assay [2], over 100 µM.

With `COc1ccc(-c2nnn(CC(=O)N3CCN(c4ccccc4OC)CC3)n2)cc1OC`, the AC50 in assay [1] was > 100 µM (inactive); in assay [2], over 100 µM.

Take `CCOc1ccc(OCCn2c(=S)[nH]c3c(N)ncnc32)cc1`: the AC50 was > 100 µM (inactive) in assay [1] and 47.8 µM in assay [2].

For `CCOc1ccc(OCC)c(NC(=O)CSc2nc3c(c(=O)n(C)c(=O)n3C)n2C(C)C)c1`, the results for the AC50 in assay [1] and in assay [2] were > 100 µM (inactive) and 45.5 µM, respectively.

Take `NC(=O)C1Cc2ccccc2CN1C(=O)c1cc(C2CC2)nn1-c1ccccc1` (stereo not drawn): the AC50 was > 100 µM (inactive) in assay [1] and 46.8 µM in assay [2].

Turning to `CCOc1ccc2oc(C(=O)NC3CCN(Cc4ccccc4)CC3)c(C)c2c1`, the AC50 in assay [1] is > 100 µM (inactive); in assay [2], over 100 µM.

Turning to `CS(=O)(=O)N(CC(=O)N1CCc2ccccc2C1)c1ccc(Br)cc1`, the AC50 was > 100 µM (inactive) in assay [1] and 47 µM in assay [2].

For the molecule `COc1ccc(C(=O)Nc2ccc3oc(Cc4ccc(Cl)cc4)nc3c2)cc1OC`, the AC50 is > 100 µM (inactive) in assay [1] and over 100 µM in assay [2].

Turning to `Cc1ccc(OCCn2c(=S)[nH]c3c(N)ncnc32)cc1`, the AC50 in assay [1] is > 100 µM (inactive); in assay [2], 34.3 µM.

In the case of `O=C(NCc1ccc(S(=O)(=O)Nc2ccccc2Cl)s1)c1ccccc1`, the AC50 was > 100 µM (inactive) in assay [1] and over 100 µM in assay [2].

Regarding `CCN(CC(=O)Nc1ccccc1OC)CC(=O)Nc1c(Cl)ccc(C)c1Cl`, the AC50 is > 100 µM (inactive) in assay [1] and over 100 µM in assay [2].

Consider `Cc1onc(-c2ccccc2Cl)c1C(=O)N[C@@H](C)c1ccccc1`, for which the AC50 was > 100 µM (inactive) in assay [1] and over 100 µM in assay [2].

For the molecule `O=C(Nc1ccc(F)cc1)N1CCCCN2[C@@H](CO)[C@H](c3ccc(-c4ccncc4)cc3)[C@@H]2C1`, the AC50 is > 100 µM (inactive) in assay [1] and over 100 µM in assay [2].

For `O=C(Nc1ccc2nc3n(c(=O)c2c1)CCCCC3)c1c(F)ccc([N+](=O)[O-])c1F`, the AC50 in assay [1] was > 100 µM (inactive); in assay [2], over 100 µM.

As to `CCn1c(-c2ccccc2Cl)nn(CC(=O)Nc2ccccc2OC)c1=S`, the results for the AC50 in assay [1] and in assay [2] were > 100 µM (inactive) and over 100 µM, respectively.

As to `COc1cc(NC(=O)CSCc2ccc(Cl)cc2Cl)c(C(=O)O)cc1OC`, the AC50 was > 100 µM (inactive) in assay [1] and over 100 µM in assay [2].

With `NC(=O)c1ccsc1NC(=O)COC(=O)CCOc1ccccc1`, the AC50 in assay [1] was > 100 µM (inactive); in assay [2] it was 46.3 µM.

For `C=CCn1c(CCSCc2ccc(OC)c(C)c2)n[nH]c1=S`, the AC50 was > 100 µM (inactive) in assay [1] and 51.2 µM in assay [2].

Turning to `O=c1c2ccccc2cnn1Cc1n[nH]c(=S)n1C1CC2CCC1C2` (stereo not drawn), the AC50 was > 100 µM (inactive) in assay [1] and over 100 µM in assay [2].

As for `COC(=O)[C@@H](Cc1c[nH]c2ccccc12)NCc1cccc(B(O)O)c1`, the values for the AC50 in assay [1] and in assay [2] were > 100 µM (inactive) and over 100 µM, respectively.

On to `CCN(CC)CC(=O)Nc1ccc(-c2ccc(NC(=O)CN(CC)CC)c(OC)c2)cc1OC`, for which the figures for the AC50 in assay [1] and in assay [2] were > 100 µM (inactive) and over 100 µM, respectively.

With `Cc1c(C(=O)N(Cc2ccc(F)cc2)C2CCS(=O)(=O)C2)oc2ccccc12` (stereo not drawn), the AC50 in assay [1] is > 100 µM (inactive); in assay [2], over 100 µM.

As for `O=C(NCc1ccc(-c2nc3ccccc3s2)cc1)c1ccco1`, the AC50 in assay [1] is > 100 µM (inactive); in assay [2] it was 4.43 µM.

Consider `C=CCn1c(-c2cc3cccc(OC)c3o2)n[nH]c1=S`, for which the AC50 in assay [1] is > 100 µM (inactive); in assay [2] it was over 100 µM.

Consider `COc1ccc(OC)c(C(=O)COC(=O)c2ccc([N+](=O)[O-])o2)c1`, for which the AC50 in assay [1] is > 100 µM (inactive); in assay [2] it was over 100 µM.

As for `CN1C(=O)c2cccc3c(S(=O)(=O)NCCc4ccccc4)ccc1c23`, the AC50 in assay [1] is > 100 µM (inactive); in assay [2] it was over 100 µM.

Take `Cc1cc(CNC(=O)COc2ccc(C)c(C)c2)c2ccccc2n1`: the figures for the AC50 in assay [1] and in assay [2] were > 100 µM (inactive) and 39 µM, respectively.

As for `CCCNC(=O)c1noc2c1CCc1cc(OC)ccc1-2`, the AC50 in assay [1] was > 100 µM (inactive); in assay [2], 34.8 µM.

Regarding `CCc1cc(C(=O)N2CCCC(C(=O)c3cccc4ccccc34)C2)n(C)n1` (stereo not drawn), the results for the AC50 in assay [1] and in assay [2] were > 100 µM (inactive) and over 100 µM, respectively.

For `Cn1c(SCC(=O)Nc2ccccc2-c2ccccc2)nnc1-c1ccco1`, the figures for the AC50 in assay [1] and in assay [2] were > 100 µM (inactive) and over 100 µM, respectively.

As for `Cc1nc2ccc(Br)cc2c(=O)n1Cc1cccs1`, the AC50 in assay [1] is > 100 µM (inactive); in assay [2] it was 49.7 µM.

Consider `COc1ccc(OC)c(NC(=O)COC(=O)C2CCN(C(=O)c3ccc(Cl)cc3)CC2)c1`, for which the AC50 is > 100 µM (inactive) in assay [1] and over 100 µM in assay [2].

Consider `O=C(CCc1ccccc1)Nc1sc2c(c1C(=O)O)CCCC2`, for which the AC50 in assay [1] was > 100 µM (inactive); in assay [2] it was 52.3 µM.

With `CCn1cc(Cl)c(C(=O)Nc2cccc(C(F)(F)F)c2)n1`, the AC50 in assay [1] was > 100 µM (inactive); in assay [2], over 100 µM.

As to `Cc1ccc(C(=O)Nc2cccc(-c3cn4ccccc4n3)c2)cc1`, the AC50 in assay [1] was > 100 µM (inactive); in assay [2] it was 51.5 µM.

Turning to `CCN(c1ccccc1)S(=O)(=O)c1ccc(OC)c(OC)c1`, the AC50 in assay [1] is > 100 µM (inactive); in assay [2] it was over 100 µM.

For `Cc1ccccc1CSCC(=O)Nc1ccccc1F`, the AC50 was > 100 µM (inactive) in assay [1] and over 100 µM in assay [2].

`Cc1ccc(CNC(=O)c2ccc(Br)o2)cc1`: the AC50 in assay [1] is > 100 µM (inactive); in assay [2] it was over 100 µM.

Take `COc1ccc(NS(=O)(=O)c2cccc3ccccc23)cc1`: the figures for the AC50 in assay [1] and in assay [2] were > 100 µM (inactive) and 40.6 µM, respectively.

Turning to `O=C(CSc1ccc(-c2cccnc2)nn1)N1CCCc2ccccc21`, the results for the AC50 in assay [1] and in assay [2] were > 100 µM (inactive) and over 100 µM, respectively.

Take `Cc1cccc(OCCC(=O)Nc2ccc(F)c(F)c2)c1`: the AC50 was > 100 µM (inactive) in assay [1] and over 100 µM in assay [2].

As for `CCCc1nc2oc3c(NCCCN(C)C)ncnc3c2c2c1CCCC2`, the AC50 in assay [1] was > 100 µM (inactive); in assay [2], over 100 µM.

For `Cc1cccc(-c2ccc([C@H]3[C@H](CO)N4CCCCN(S(=O)(=O)c5ccccc5C)C[C@@H]34)cc2)c1`, the AC50 in assay [1] is > 100 µM (inactive); in assay [2], over 100 µM.

For `COc1ccc(-c2ccccc2)cc1NC(=O)c1ccncc1`, the AC50 was > 100 µM (inactive) in assay [1] and over 100 µM in assay [2].

For the molecule `S=C1SCN(Cc2cccnc2)CN1Cc1ccccc1`, the AC50 in assay [1] is > 100 µM (inactive); in assay [2], over 100 µM.

Regarding `CCCn1c(=O)c2ccccc2n2c(SCCOc3ccc(OC)cc3)nnc12`, the AC50 in assay [1] was > 100 µM (inactive); in assay [2], over 100 µM.

As to `Cc1cc(OCC(=O)N(Cc2ccco2)C2CCS(=O)(=O)C2)ccc1Cl` (stereo not drawn), the AC50 is > 100 µM (inactive) in assay [1] and over 100 µM in assay [2].

In the case of `COC(=O)c1c(C)oc(C)c1S(=O)(=O)NC(c1ccccc1)c1ccccc1`, the AC50 is > 100 µM (inactive) in assay [1] and 44.4 µM in assay [2].

For the molecule `Cc1ccc(NC(=O)c2cccs2)cc1[N+](=O)[O-]`, the AC50 in assay [1] is > 100 µM (inactive); in assay [2], over 100 µM.

`CN(C)Cc1nc2ccccc2c(=O)n1Cc1nc(-c2cccc([N+](=O)[O-])c2)cs1`: the AC50 is > 100 µM (inactive) in assay [1] and over 100 µM in assay [2].

As for `O=C(Nc1cccc(S(=O)(=O)N2CCCCC2)c1)c1ccc(Cl)nc1`, the AC50 in assay [1] is > 100 µM (inactive); in assay [2] it was over 100 µM.

Regarding `O=[N+]([O-])c1ccccc1Oc1ccc(Cl)c2cccnc12`, the AC50 in assay [1] is > 100 µM (inactive); in assay [2], over 100 µM.

Turning to `CN(CCOc1ccccc1)C(=O)c1ccc(OC2CCN(C(=O)C3CC3)CC2)cc1`, the AC50 in assay [1] was > 100 µM (inactive); in assay [2], over 100 µM.

With `COc1ccc(-c2nc3ccc(Cl)cn3c2Cc2cccc(F)c2)cc1OC`, the AC50 in assay [1] was > 100 µM (inactive); in assay [2], 51.6 µM.

As for `Cc1cc(C(N)=O)nn1-c1c(Cl)cc(Cl)cc1Cl`, the AC50 in assay [1] was > 100 µM (inactive); in assay [2], over 100 µM.

In the case of `COc1cc2c(cc1NC(=O)C(C)Sc1cccc[n+]1[O-])oc1ccccc12` (stereo not drawn), the AC50 in assay [1] was > 100 µM (inactive); in assay [2], over 100 µM.

On to `CCCCNC(=O)c1onc(CSc2cc(C)cc(C)c2)c1C(=O)O`, for which the AC50 in assay [1] is > 100 µM (inactive); in assay [2] it was 28 µM.

Consider `COc1ccc(S(=O)(=O)Cc2ccc(C(=O)N3CCN(c4cc(Cl)ccc4C)CC3)o2)cc1`, for which the AC50 in assay [1] is > 100 µM (inactive); in assay [2] it was 49.9 µM.

For the molecule `COC(=O)c1ccc(CSc2nc(-c3ccccc3)cs2)o1`, the AC50 in assay [1] was > 100 µM (inactive); in assay [2], 27.1 µM.

For `CC(=O)Nc1ccc(S(=O)(=O)Nc2cccc(-c3nc4cc(C)ccc4o3)c2)cc1`, the AC50 in assay [1] is > 100 µM (inactive); in assay [2] it was over 100 µM.

As for `COc1ccc(OC)c(-c2nnc3n2N=C(c2ccc(OC)c(OC4CCOC4)c2)CS3)c1` (stereo not drawn), the AC50 in assay [1] is > 100 µM (inactive); in assay [2], over 100 µM.

`Cc1ccc(C)c(-c2[nH]ncc2CN2CCCC(CO)(Cc3ccccc3C)C2)c1` (stereo not drawn): the AC50 in assay [1] is > 100 µM (inactive); in assay [2], over 100 µM.

`CC(=O)Nc1ccc(-c2ccnc3c2CC(C)(C(=O)Nc2ccc4c(c2)OCO4)O3)cc1` (stereo not drawn): the AC50 in assay [1] was > 100 µM (inactive); in assay [2], over 100 µM.

As to `Cc1ccccc1COc1ccc(-c2nn[nH]n2)cc1`, the AC50 in assay [1] is > 100 µM (inactive); in assay [2] it was 39.4 µM.
